In patent publication US20110015225A1, “Heterocyclic compound” (Takeda Pharmaceutical Company Limited, priority 2008, published 2011) one finds IC50 data, which are given here for 26 compounds.

The target in the assay is MCH receptor (SLC-1) (UniProt Q99705). Briefly: MCH receptor antagonistic activity using GTPγS binding assay. In kind it is biochemical, human. Particulars: [35S]-GTPγS binding, membrane fractions of SLC-1 expression CHO cells, 3×10^−10 M MCH, 25° C. 1 hr; read-out: Inhibitory Activity (IC50 value: nM). The procedure:
Using human SLC-1 expression CHO cell clone 57 and rat SLC-1 expression CHO cell clone 44 described in WO01/82925, membrane fractions of SLC-1 expression CHO cells were prepared by the following method. In phosphate buffered saline (pH 7.4) supplemented with 5 mM EDTA (ethylenediaminetetraacetic acid) were suspended human and rat SLC-1 expression CHO cells (1×10^8) and centrifuged. Homogenate buffer (10 ml, 10 mM […], 5 mM EDTA, pH 7.5) was added to the pellets of the cells and, using Polytron Homogenizer, the mixture was homogenated. The supernatant obtained after centrifugation at 400×g for 15 min was further centrifuged at 100,000×g for 1 hr to give precipitate of the membrane fraction. The precipitate was suspended in 2 ml of an assay buffer [50 mM Tris-HCl (pH 7.5), 1 mM EDTA, 0.1% BSA (bovine serum albumin), 10 mM MgCl2, 100 mM NaCl, 1 μM GDP (guanosine 5′-diphosphate), 0.25 mM PMSF (phenylmethylsulfonyl fluoride), […]] and centrifuged at 100,000×g for 1 hr. The membrane fraction recovered as precipitate was suspended again in 20 ml of an assay buffer, and after dispensing, preserved at −80° C. and used upon thawing each time when in use.
The MCH receptor antagonistic activity of the test compound was determined as follows. The membrane fractions of SLC-1 expression CHO cells (171 μl) diluted with an assay buffer was dispensed to a polypropylene 96 well plate and 3×10^−10 M MCH (2 μl) diluted with DMSO solution, test compound solution (2 μl) diluted to various concentrations and [^35S]-Guanosine 5′-(γ-thio)triphosphate (25 μl, Daiichi Pure Chemicals Co., Ltd.) were respectively added (cellular membrane final concentration: 20 μg/ml, [^35S]-Guanosine 5′-(γ-thio)triphosphate final concentration: 0.33 nM). The reaction mixture was reacted at 25° C. for 1 hr with stirring, suction filtered with a glass filter (GF-C) and washed 3 times with a wash solution (300 μl, 50 mM Tris-HCl buffer, pH 7.5). Liquid scintillator ([…]) was added to the glass filter and the residual radioactivity was determined by a liquid scintillation counter.
Binding inhibition (%)=(radioactivity upon addition of test compound and MCH−radioactivity upon addition of DMSO solution)/(radioactivity upon addition of MCH−radioactivity upon addition of DMSO solution)×100
From the binding inhibition (%), IC50 of the test compound was calculated.
In general terms: GTPγS is a poorly hydrolysed GTP analogue; its binding reports G protein activation.
Consider `Cc1c(NC(=O)c2ccc(OCCC3CC3)cc2)ccc2cc(CNC3CCS(=O)(=O)CC3)cnc12` [Ex. 20, 4-(2-cyclopropylethoxy)-N-(3-{[(1,1-dioxidotetrahydro-2H-thiopyran-4-yl)amino]methyl}-8-methylquinolin-7-yl)benzamide], for which the IC50 (in general, the point on the concentration scale where inhibition reaches its midpoint) is 1.4 nM.

On to `Cc1c(NC(=O)c2ccc(OCC3CC3)cc2)ccc2cc(CNCC3CCS(=O)(=O)CC3)cnc12` [Ex. 16, 4-(cyclopropylmethoxy)-N-[3-({[(1,1-dioxidotetrahydro-2H-thiopyran-4-yl)methyl]amino}methyl)-8-methylquinolin-7-yl]benzamide], for which the IC50 came to 1.8 nM.

`Cc1c(NC(=O)c2ccc(OCC3CC3)cc2F)ccc2cc(CNC3CCS(=O)(=O)CC3)cnc12` [Ex. 34, 4-(cyclopropylmethoxy)-N-(3-{[(1,1-dioxidotetrahydro-2H-thiopyran-4-yl)amino]methyl}-8-methylquinolin-7-yl)-2-fluorobenzamide]: the IC50 amounted to 2.7 nM.

As for `Cc1c(NC(=O)c2ccc(OCC3CC3)cc2)ccc2cc(C(C)NCCNS(C)(=O)=O)cnc12` (centres unmarked) [Ex. 7, 4-(cyclopropylmethoxy)-N-{8-methyl-3-[1-({2-[(methylsulfonyl)amino]ethyl}amino)ethyl]quinolin-7-yl}benzamide], the IC50 came out at 3.7 nM.

Consider `Cc1c(NC(=O)c2ccc(OCC3CC3)cc2)ccc2cc(CNCCCC[S+](C)[O-])cnc12` (centres unmarked) [Ex. 26, 4-(cyclopropylmethoxy)-N-[8-methyl-3-({[4-(methylsulfinyl)butyl]amino}methyl)quinolin-7-yl]benzamide], for which the IC50 is 4.6 nM.

With `Cc1c(NC(=O)c2ccc(OCC3CC3)cc2F)ccc2cc(CNC3CC[S+]([O-])CC3)cnc12` (stereo not drawn) [Ex. 35, 4-(cyclopropylmethoxy)-2-fluoro-N-(8-methyl-3-{[(trans-1-oxidotetrahydro-2H-thiopyran-4-yl)amino]methyl}quinolin-7-yl)benzamide], the IC50 came out at 5.6 nM.

Take `Cc1c(NC(=O)c2ccc(OCC3CC3)cc2)ccc2cc(CNCCNS(C)(=O)=O)cnc12` [Ex. 6, 4-(cyclopropylmethoxy)-N-{8-methyl-3-[({2-[(methylsulfonyl)amino]ethyl}amino)methyl]quinolin-7-yl}benzamide]: the IC50 came out at 4 nM.

Take `Cc1c(NC(=O)c2ccc(OCC3CC3)cc2)ccc2cc(CNCCCS(C)(=O)=O)cnc12` [Ex. 2, 4-(cyclopropylmethoxy)-N-[8-methyl-3-({[3-(methylsulfonyl)propyl]amino}methyl)quinolin-7-yl]benzamide]: the IC50 was found to be 2.3 nM.

Turning to `Cc1c(NC(=O)c2ccc(OCC3CC3)cc2)ccc2cc(CNCC(C)(C)CS(C)(=O)=O)cnc12` [Ex. 4, 4-(cyclopropylmethoxy)-N-[3-({[2,2-dimethyl-3-(methylsulfonyl)propyl]amino}methyl)-8-methylquinolin-7-yl]benzamide], the IC50 came to 2.8 nM.

With `Cc1c(NC(=O)c2ccc(C#CC3CC3)cc2)ccc2cc(CNC3CCS(=O)(=O)CC3)cnc12` [Ex. 41, 4-(cyclopropylethynyl)-N-(3-{[(1,1-dioxidotetrahydro-2H-thiopyran-4-yl)amino]methyl}-8-methylquinolin-7-yl)benzamide], the IC50 amounted to 2.2 nM.

Consider `Cc1c(NC(=O)c2ccc(OCCC3CC3)cc2)ccc2cc(CNCCCS(C)(=O)=O)cnc12` [Ex. 18, 4-(2-cyclopropylethoxy)-N-[8-methyl-3-({[3-(methylsulfonyl)propyl]amino}methyl)quinolin-7-yl]benzamide], for which the IC50 came to 1.1 nM.

For `Cc1c(NC(=O)c2ccc(OCC3CC3)cc2)ccc2cc(CNC3CCS(=O)(=O)CC3)cnc12` [Ex. 31, 4-(cyclopropylmethoxy)-N-(3-{[(1,1-dioxidotetrahydro-2H-thiopyran-4-yl)amino]methyl}-8-methylquinolin-7-yl)benzamide], the IC50 was found to be 5.1 nM.

In the case of `Cc1c(NC(=O)c2ccc(OCC3CC3)cc2)ccc2cc(CNCCCCS(C)(=O)=O)cnc12` [Ex. 27, 4-(cyclopropylmethoxy)-N-[8-methyl-3-({[4-(methylsulfonyl)butyl]amino}methyl)quinolin-7-yl]benzamide], the IC50 turned out to be 1.6 nM.

`Cc1c(NC(=O)c2ccc(OCC3CC3)cc2)ccc2cc(CNCC3(O)CCS(=O)(=O)CC3)cnc12` [Ex. 15, 4-(cyclopropylmethoxy)-N-[3-({[(4-hydroxy-1,1-dioxidotetrahydro-2H-thiopyran-4-yl)methyl]amino}methyl)-8-methylquinolin-7-yl]benzamide]: the IC50 stood at 5.6 nM.

In the case of `Cc1c(NC(=O)c2ccc(OCC3CC3)cc2)ccc2cc(CNCC3CCN(S(C)(=O)=O)CC3)cnc12` [Ex. 14, 4-(cyclopropylmethoxy)-N-{8-methyl-3-[({[1-(methylsulfonyl)piperidin-4-yl]methyl}amino)methyl]quinolin-7-yl}benzamide], the IC50 stood at 3 nM.

Take `Cc1c(NC(=O)c2ccc(C#CC3CC3)cc2)ccc2cc(CNCCCS(C)(=O)=O)cnc12` [Ex. 44, 4-(cyclopropylethynyl)-N-[8-methyl-3-({[3-(methylsulfonyl)propyl]amino}methyl)quinolin-7-yl]benzamide]: the IC50 was found to be 2.2 nM.

As for `Cc1c(NC(=O)c2ccc(OCC3CC3)cc2)ccc2cc(CNCCCNS(C)(=O)=O)cnc12` [Ex. 13, 4-(cyclopropylmethoxy)-N-{8-methyl-3-[({3-[(methylsulfonyl)amino]propyl}amino)methyl]quinolin-7-yl}benzamide], the IC50 worked out at 2.8 nM.

For the compound `Cc1c(NC(=O)c2ccc(OCC3CC3)cc2)ccc2cc(CNC3CC[S+]([O-])CC3)cnc12` (stereo not drawn) [Ex. 32, 4-(cyclopropylmethoxy)-N-(8-methyl-3-{[(trans-1-oxidotetrahydro-2H-thiopyran-4-yl)amino]methyl}quinolin-7-yl)benzamide], the IC50 turned out to be 6.5 nM.

With `O=C(Nc1ccc2cc(CNC3CCS(=O)(=O)CC3)ccc2c1)c1ccc(OCC2CC2)cc1` [Ex. 46, 4-(cyclopropylmethoxy)-N-(6-{[(1,1-dioxidotetrahydro-2H-thiopyran-4-yl)amino]methyl}naphthalen-2-yl)benzamide], the IC50 was 4.4 nM.

Regarding `Cc1c(NC(=O)c2ccc(OCC3CC3)cc2)ccc2cc(C(C)NC3CCS(=O)(=O)CC3)cnc12` (centres unmarked) [Ex. 28, 4-(cyclopropylmethoxy)-N-(3-{1-[(1,1-dioxidotetrahydro-2H-thiopyran-4-yl)amino]ethyl}-8-methylquinolin-7-yl)benzamide], the IC50 is 4.6 nM.

With `Cc1c(NC(=O)c2ccc(OCCC3CC3)cc2)ccc2cc(CNC3CC[S+]([O-])CC3)cnc12` (stereo not drawn) [Ex. 21, 4-(2-cyclopropylethoxy)-N-(8-methyl-3-{[(trans-1-oxidotetrahydro-2H-thiopyran-4-yl)amino]methyl}quinolin-7-yl)benzamide], the IC50 was found to be 2.7 nM.

On to `Cc1c(NC(=O)c2ccc(OCC3CC3)cc2F)ccc2cc(CNC3CC[S+]([O-])CC3)cnc12` (stereo not drawn) [Ex. 36, 4-(cyclopropylmethoxy)-2-fluoro-N-(8-methyl-3-{[(cis-1-oxidotetrahydro-2H-thiopyran-4-yl)amino]methyl}quinolin-7-yl)benzamide], for which the IC50 was found to be 3.4 nM.

`Cc1c(NC(=O)c2ccc(OCCC3CC3)cc2F)ccc2cc(CNC3CCS(=O)(=O)CC3)cnc12` [Ex. 23, 4-(2-cyclopropylethoxy)-N-(3-{[(1,1-dioxidotetrahydro-2H-thiopyran-4-yl)amino]methyl}-8-methylquinolin-7-yl)-2-fluorobenzamide]: the IC50 worked out at 1.5 nM.

Turning to `Cc1c(NC(=O)c2ccc(OCC3CC3)cc2)ccc2cc(CNC3CC[S+]([O-])CC3)cnc12` (stereo not drawn) [Ex. 33, 4-(cyclopropylmethoxy)-N-(8-methyl-3-{[(cis-1-oxidotetrahydro-2H-thiopyran-4-yl)amino]methyl}quinolin-7-yl)benzamide], the IC50 worked out at 4.1 nM.

Take `CC1=C(CNC2CCS(=O)(=O)CC2)CCc2cc(NC(=O)c3ccc(OCC4CC4)cc3)ccc21` [Ex. 47, 4-(cyclopropylmethoxy)-N-(6-{[(1,1-dioxidotetrahydro-2H-thiopyran-4-yl)amino]methyl}-5-methyl-7,8-dihydronaphthalen-2-yl)benzamide]: the IC50 came to 6.7 nM.

For the compound `Cc1c(NC(=O)c2ccc(C#CC3CC3)cc2)ccc2cc(CNCC3(O)CCS(=O)(=O)CC3)cnc12` [Ex. 43, 4-(cyclopropylethynyl)-N-[3-({[(4-hydroxy-1,1-dioxidotetrahydro-2H-thiopyran-4-yl)methyl]amino}methyl)-8-methylquinolin-7-yl]benzamide], the IC50 amounted to 4.7 nM.
